Results from patent publication US10519111B2, “UV absorbing compounds, compositions comprising same and uses thereof” (CORAL SUNSCREEN PTY LTD, priority 2013, dated 2019).
Values joined by “and” are separate entries in the source; they are usually repeats but may differ in a detail not shown here. Equal values may be shown once.

Experiment: UV absorption properties (λmax, molar extinction coefficient ε, efficiency E 1%, 1 cm)
Format: physicochemical
Conditions: for ε (molar extinction coefficient): values in order of the λmax values; for shift / increase in λmax: versus base enaminoketone or alkanoyl counterparts

| SMILES | UV λmax | ε (molar extinction coefficient) | other results |
| --- | --- | --- | --- |
| CC(=O)CC1=CC(C)(C)CCN1CC(C)C | – | – | E (1%, 1 cm) (Table 12): 675; ε (Table 12): 16000 M⁻¹ cm⁻¹; λmax (Table 12, 2-substituted compounds): 314 nm |
| CC(C)CN1C=C(C(=O)CCC=Cc2ccc(COc3ccc(C(=O)CC(=O)c4ccc(C(C)(C)C)cc4)cc3)cc2)C(C)(C)CC1 (racemic) [Compound 10, 1-(4-(tert-butyl)phenyl)-3-(4-((4-(5-(1-isobutyl-4,4-dimethyl-1,4,5,6-tetrahydropyridin-3-yl)-5-oxopent-1-en-1-yl)benzyl)oxy)phenyl)propane-1,3-dione] | 314 nm and 357 nm | 23250 M⁻¹ cm⁻¹ and 24050 M⁻¹ cm⁻¹ | – |
| COc1ccc(C(=O)C(CCCCCC(=O)C2=CN(CC(C)C)CCC2(C)C)C(=O)c2ccc(C(C)(C)C)cc2)cc1 (centres unmarked) [Compound 5] | 306 nm | – | – |
| C=CCCC(=O)C1=CN(CC(C)C)CCC1(C)C [Compound 8, 1-(1-Isobutyl-4,4-dimethyl-1,4,5,6-tetrahydropyridin-3-yl)pent-4-en-1-one] | 308 nm | 35000 M⁻¹ cm⁻¹ | – |
| CC(C)(C)c1ccc(C(=O)CC(=O)c2ccc(OCc3ccc(Br)cc3)cc2)cc1 [Compound 9, 1-(4-((4-bromobenzyl)oxy)phenyl)-3-(4-(tert-butyl)phenyl)propane-1,3-dione] | 357 nm | 35500 M⁻¹ cm⁻¹ | – |
| CC(C)CN1C=C(C(=O)c2ccc(C(C)(C)C)cc2)C(C)(C)CC1 [Compound 11, (4-(tert-butyl)phenyl)(1-isobutyl-4,4-dimethyl-1,4,5,6-tetrahydropyridin-3-yl)methanone] | 317 nm | 19000 M⁻¹ cm⁻¹ | shift / increase in λmax: approximately 11 nm |
| COc1ccc(C(=O)C2=CN(CC(C)C)CCC2(C)C)cc1 [Compound 12, (1-isobutyl-4,4-dimethyl-1,4,5,6-tetrahydropyridin-3-yl) (4-methoxyphenyl)methanone] | 319 nm | – | shift / increase in λmax: approximately 11 nm |
| COc1ccc(C(=O)CC(=O)C2=CN(CC(C)C)CCC2(C)C)cc1 [Compound 13, 1-(1-isobutyl-4,4-dimethyl-1,4,5,6-tetrahydropyridin-3-yl)-3-(4-methoxyphenyl)propane-1,3-dione] | 293 nm and 396 nm | 14250 M⁻¹ cm⁻¹ and 11150 M⁻¹ cm⁻¹ | – |
| CC(C)CN1C=C(C(=O)c2ccc(N(C)C)cc2)C(C)(C)CC1 [Compound 15, (4-(dimethylamino)phenyl)(1-isobutyl-4,4-dimethyl-1,4,5,6-tetrahydropyridin-3-yl)methanone] | 336 nm | 17000 M⁻¹ cm⁻¹ | – |
| CC(C)CN1C=C(C(=O)c2ccc(Br)cc2)C(C)(C)CC1 [Compound 16, (4-bromophenyl)(1-isobutyl-4,4-dimethyl-1,4,5,6-tetrahydropyridin-3-yl)methanone] | 318 nm | 22500 M⁻¹ cm⁻¹ | – |
| CC(C)CN1C=C(C(=O)c2ccc3c(c2)CCO3)C(C)(C)CC1 [Compound 18, (2,3-dihydrobenzofuran-5-yl)(1-isobutyl-4,4-dimethyl-1,4,5,6-tetrahydropyridin-3-yl)methanone] | 320 nm | 22000 M⁻¹ cm⁻¹ | – |
| CC(C)CN1C=C(C(=O)c2ccc(-c3ccccc3)cc2)C(C)(C)CC1 [Compound 19, [1,1′-biphenyl]-4-yl(1-isobutyl-4,4-dimethyl-1,4,5,6-tetrahydropyridin-3-yl)methanone] | 320 nm | 18000 M⁻¹ cm⁻¹ | – |
| CC(C)CN1C=C(C(=O)c2ccccc2)C(C)(C)CC1 [Compound 20, (1-isobutyl-4,4-dimethyl-1,4,5,6-tetrahydropyridin-3-yl)(phenyl)methanone] | 316 nm | 19000 M⁻¹ cm⁻¹ | – |
| CC(C)CN1C=C(C(=O)c2ccc(C(=O)C3=CN(CC(C)C)CCC3(C)C)cc2)C(C)(C)CC1 [Compound 21, 1,4-phenylenebis ((1-isobutyl-4,4-dimethyl-1,4,5,6-tetrahydropyridin-3-yl)methanone)] | 320 nm | 20000 M⁻¹ cm⁻¹ | – |
| CC(C)CN1C=C(C(=O)c2cc(C(=O)C3=CN(CC(C)C)CCC3(C)C)cc(C(=O)C3=CN(CC(C)C)CCC3(C)C)c2)C(C)(C)CC1 [Compound 22, benzene-1,3,5-triyltris ((1-isobutyl-4,4-dimethyl-1,4,5,6-tetrahydropyridin-3-yl)methanone)] | 316 nm | 33000 M⁻¹ cm⁻¹ | – |
| CC(C)CN1C=C(C(=O)c2ccc(C(=O)c3ccccc3)cc2)C(C)(C)CC1 [Compound 23, (4-benzoylphenyl)(1-isobutyl-4,4-dimethyl-1,4,5,6-tetrahydropyridin-3-yl)methanone] | 295 nm | 7500 M⁻¹ cm⁻¹ | – |
| COc1ccc(C(=O)C2=CN(CC(C)C)CCC2(C)C)c(OC)c1 [Compound 24, 2,4-dimethoxyphenyl(1-isobutyl-4,4-dimethyl-1,4,5,6-tetrahydropyridin-3-yl)methanone] | 313 nm | 9500 M⁻¹ cm⁻¹ | – |
| CC(C)=CC(=O)C1=CN(CC(C)C)CCC1(C)C [Compound 26, 1-(1-isobutyl-4,4-dimethyl-1,4,5,6-tetrahydropyridin-3-yl)-3-methylbut-2-en-1-one] | 310 nm and 314 nm | 19000 M⁻¹ cm⁻¹ | – |
| C=C(C)CC(=O)C1=CN(CC(C)C)CCC1(C)C [Compound 27, 1-(1-isobutyl-4,4-dimethyl-1,4,5,6-tetrahydropyridin-3-yl)-3-methylbut-3-en-1-one] | 306 nm | 14500 M⁻¹ cm⁻¹ | – |
| C=C/C=C/CC(=O)C1=CN(CC(C)C)CCC1(C)C [Compound 28, (E)-1-(1-isobutyl-4,4-dimethyl-1,4,5,6-tetrahydropyridin-3-yl)hexa-3,5-dien-1-one] | 311 nm | – | – |
| C=CCC(=O)C1=CN(CC(C)C)CCC1(C)C [Compound 29, 1-(1-isobutyl-4,4-dimethyl-1,4,5,6-tetrahydropyridin-3-yl)but-3-en-1-one] | 310 nm | – | – |
| CC(C)CN1C=C(C(=O)/C=C/c2ccccc2)C(C)(C)CC1 [Compound 31, (E)-1-(1-Isobutyl-4,4-dimethyl-1,4,5,6-tetrahydropyridin-3-yl)-3-phenylprop-2-en-1-one] | 360 nm | 16000 M⁻¹ cm⁻¹ | – |

The next lines start with results.

| UV λmax | ε (molar extinction coefficient) | SMILES | other results |
| --- | --- | --- | --- |
| 331 nm | 20500 M⁻¹ cm⁻¹ | C=CC(=O)C1=CN(CC(C)C)CCC1(C)C [Compound 32, 1-(1-Isobutyl-4,4-dimethyl-1,4,5,6-tetrahydropyridin-3-yl)prop-2-en-1-one] | – |
| 369 nm | 17000 M⁻¹ cm⁻¹ | CC(C)CN1C=C(C(=O)/C=C/c2ccc(C(F)(F)F)cc2)C(C)(C)CC1 [Compound 33, (E)-1-(1-Isobutyl-4,4-dimethyl-1,4,5,6-tetrahydropyridin-3-yl)-3-(4-(trifluoromethyl)phenyl)prop-2-en-1-one] | – |
| 364 nm | 16150 M⁻¹ cm⁻¹ | COc1ccc(/C=C/C(=O)C2=CN(CC(C)C)CCC2(C)C)cc1 [Compound 34, (E)-1-(1-isobutyl-4,4-dimethyl-1,4,5,6-tetrahydropyridin-3-yl)-3-(4-methoxyphenyl)prop-2-en-1-one] | – |
| 318 nm and 370 nm | 14800 M⁻¹ cm⁻¹ and 13200 M⁻¹ cm⁻¹ | CC(C)CN1C=C(C(=O)/C=C/C=Cc2ccccc2)C(C)(C)CC1 [Compound 35, (2E, 4E/Z)-1-(1-isobutyl-4,4-dimethyl-1,4,5,6-tetrahydropyridin-3-yl)-5-phenylpenta-2,4-dien-1-one] | – |
| 310 nm | 18950 M⁻¹ cm⁻¹ | C=C(C)C(=O)C1=CN(CC(C)C)CCC1(C)C [Compound 36, 1-(1-Isobutyl-4,4-dimethyl-1,4,5,6-tetrahydropyridin-3-yl)methylprop-2-en-1-one] | – |
| 352 nm | 18000 M⁻¹ cm⁻¹ | C=C/C=C/C(=O)C1=CN(CC(C)C)CCC1(C)C [Compound 38, (2E/Z) 1-(1-isobutyl-4,4-dimethyl-1,4,5,6-tetrahydropyridin-3-yl)penta-2,4-dien-1-one] | – |
| 297 nm and 317 nm | 15750 M⁻¹ cm⁻¹ and 16150 M⁻¹ cm⁻¹ | CC(C)CN1C=C(C(=O)C(C#N)=C(c2ccccc2)c2ccccc2)C(C)(C)CC1 [Compound 39] | – |
| 278 nm | 22550 M⁻¹ cm⁻¹ | CC1(C)C=CN(c2ccccc2)CC1 [Compound 46, 4,4-dimethyl-1-phenyl-1,2,3,4-tetrahydropyridine] | – |
| 321 nm | 23000 M⁻¹ cm⁻¹ | CCC(=O)C1=CN(c2ccccc2)CCC1(C)C [Compound 47, 1-(4,4-dimethyl-1-phenyl-1,4,5,6-tetrahydropyridin-3-yl)propan-1-one] | – |
| 346 nm | 21000 M⁻¹ cm⁻¹ | C=CC(=O)C1=CN(c2ccccc2)CCC1(C)C [Compound 48, 1-(4,4-dimethyl-1-phenyl-1,4,5,6-tetrahydropyridin-3-yl)prop-2-en-1-one] | – |
| 338 nm | 23300 M⁻¹ cm⁻¹ | CC1(C)CCN(c2ccccc2)C=C1C(=O)c1ccc(Br)cc1 [Compound 49, (4-bromophenyl)(1-(phenyl)-4,4-dimethyl-1,4,5,6-tetrahydropyridin-3-yl)methanone] | – |
| 285 nm | 16000 M⁻¹ cm⁻¹ | CC1(C)C=CN(c2ccccc2)C=C1 [Compound 50, 4,4-dimethyl-1-phenyl-1,4-dihydropyridine] | – |
| 278 nm | 22550 M⁻¹ cm⁻¹ | COc1ccc(N2C=CC(C)(C)CC2)cc1 [Compound 51, 1-(4-methoxyphenyl)-4,4-dimethyl-1,2,3,4-tetrahydropyridine] | – |
| 328 nm | 23500 M⁻¹ cm⁻¹ | CCC(=O)C1=CN(c2ccc(OC)cc2)CCC1(C)C [Compound 52, 1-(1-(4-methoxyphenyl)-4,4-dimethyl-1,4,5,6-tetrahydropyridin-3-yl)propan-1-one] | – |
